Measured values reported in article PMC3573846 (International journal of pharmaceutics, 2012).
Blank lines part the entries; values can stand above or below the molecule they belong to.

Tests used:
[1] = molecular target: P-gp (MDR1), MDCK-MDR1 cell monolayers (Homo sapiens, UniProt P08183); assay: Bi-directional transport across MDCK-MDR1 monolayers; type: in vitro ADME
P-gp (MDR1) = P-gp (MDR1) (Homo sapiens, UniProt P08183); assay: as above; type: in vitro ADME; details: dog
[2] = Brain accumulation and plasma pharmacokinetics of pazopanib in FVB mice; details: for half-life: 5 mg/kg
[3] = molecular target: T1, Bcrp1, MDCKII-Bcrp1 transfected cells (Mus musculus, UniProt Q7TMS5); assay: Cellular accumulation of pazopanib in MDCKII-Bcrp1 vs WT cells; type: in vitro ADME, murine; details: 0.1 μM pazopanib, 60 min, no inhibitor
T1 sequence (Q7TMS5 1-657): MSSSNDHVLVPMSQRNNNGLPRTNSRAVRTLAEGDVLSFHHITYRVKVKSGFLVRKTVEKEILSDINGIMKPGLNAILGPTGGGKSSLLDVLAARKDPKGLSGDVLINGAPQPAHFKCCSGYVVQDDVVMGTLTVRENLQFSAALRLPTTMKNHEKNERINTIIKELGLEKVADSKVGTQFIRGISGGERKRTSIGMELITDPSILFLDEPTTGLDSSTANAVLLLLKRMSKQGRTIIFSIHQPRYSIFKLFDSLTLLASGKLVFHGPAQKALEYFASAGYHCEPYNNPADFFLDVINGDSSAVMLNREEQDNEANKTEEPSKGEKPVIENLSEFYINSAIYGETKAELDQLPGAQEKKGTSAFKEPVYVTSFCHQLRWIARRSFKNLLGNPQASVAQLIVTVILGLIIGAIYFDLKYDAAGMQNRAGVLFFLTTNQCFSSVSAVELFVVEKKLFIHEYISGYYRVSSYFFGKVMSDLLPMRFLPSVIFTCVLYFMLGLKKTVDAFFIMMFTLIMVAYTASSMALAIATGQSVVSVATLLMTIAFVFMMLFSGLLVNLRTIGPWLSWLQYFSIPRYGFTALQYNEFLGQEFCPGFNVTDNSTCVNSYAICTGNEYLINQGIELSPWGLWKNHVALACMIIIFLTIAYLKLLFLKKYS

[4] = Bi-directional transport across MDCK-WT monolayers; type: in vitro ADME, canine; details: dog
Bcrp1 (murine) = molecular target: T2, Bcrp1 (murine) (Mus musculus, UniProt Q7TMS5); assay: Bi-directional transport across MDCK-Bcrp1 monolayers; type: in vitro ADME; details: dog
T2 sequence (Q7TMS5 1-657): T1 sequence (Q7TMS5 1-657)

[5] = molecular target: T3, Bcrp1, MDCK-Bcrp1 cell monolayers (Mus musculus, UniProt Q7TMS5); assay: as above; type: in vitro ADME, murine
T3 sequence (Q7TMS5 1-657): T1 sequence (Q7TMS5 1-657)

Bcrp1 = molecular target: T4, Bcrp1 (Mus musculus, UniProt Q7TMS5); assay: as above; type: in vitro ADME, murine; details: mouse, Efflux ratio, MDCK-Bcrp1, 5 μM pazopanib, no inhibitor
T4 sequence (Q7TMS5 1-657): T1 sequence (Q7TMS5 1-657)

in vivo = details: male, mouse, 5 mg/kg
[6] = molecular target: P-gp (MDR1), MDCKII-MDR1 transfected cells (Homo sapiens, UniProt P08183); assay: Cellular accumulation of pazopanib in MDCKII-MDR1 vs WT cells; type: in vitro ADME; details: 0.1 μM pazopanib, 60 min, no inhibitor
Chain of P-gp (MDR1), MDCKII-MDR1 transfected cells (P08183 whole entry): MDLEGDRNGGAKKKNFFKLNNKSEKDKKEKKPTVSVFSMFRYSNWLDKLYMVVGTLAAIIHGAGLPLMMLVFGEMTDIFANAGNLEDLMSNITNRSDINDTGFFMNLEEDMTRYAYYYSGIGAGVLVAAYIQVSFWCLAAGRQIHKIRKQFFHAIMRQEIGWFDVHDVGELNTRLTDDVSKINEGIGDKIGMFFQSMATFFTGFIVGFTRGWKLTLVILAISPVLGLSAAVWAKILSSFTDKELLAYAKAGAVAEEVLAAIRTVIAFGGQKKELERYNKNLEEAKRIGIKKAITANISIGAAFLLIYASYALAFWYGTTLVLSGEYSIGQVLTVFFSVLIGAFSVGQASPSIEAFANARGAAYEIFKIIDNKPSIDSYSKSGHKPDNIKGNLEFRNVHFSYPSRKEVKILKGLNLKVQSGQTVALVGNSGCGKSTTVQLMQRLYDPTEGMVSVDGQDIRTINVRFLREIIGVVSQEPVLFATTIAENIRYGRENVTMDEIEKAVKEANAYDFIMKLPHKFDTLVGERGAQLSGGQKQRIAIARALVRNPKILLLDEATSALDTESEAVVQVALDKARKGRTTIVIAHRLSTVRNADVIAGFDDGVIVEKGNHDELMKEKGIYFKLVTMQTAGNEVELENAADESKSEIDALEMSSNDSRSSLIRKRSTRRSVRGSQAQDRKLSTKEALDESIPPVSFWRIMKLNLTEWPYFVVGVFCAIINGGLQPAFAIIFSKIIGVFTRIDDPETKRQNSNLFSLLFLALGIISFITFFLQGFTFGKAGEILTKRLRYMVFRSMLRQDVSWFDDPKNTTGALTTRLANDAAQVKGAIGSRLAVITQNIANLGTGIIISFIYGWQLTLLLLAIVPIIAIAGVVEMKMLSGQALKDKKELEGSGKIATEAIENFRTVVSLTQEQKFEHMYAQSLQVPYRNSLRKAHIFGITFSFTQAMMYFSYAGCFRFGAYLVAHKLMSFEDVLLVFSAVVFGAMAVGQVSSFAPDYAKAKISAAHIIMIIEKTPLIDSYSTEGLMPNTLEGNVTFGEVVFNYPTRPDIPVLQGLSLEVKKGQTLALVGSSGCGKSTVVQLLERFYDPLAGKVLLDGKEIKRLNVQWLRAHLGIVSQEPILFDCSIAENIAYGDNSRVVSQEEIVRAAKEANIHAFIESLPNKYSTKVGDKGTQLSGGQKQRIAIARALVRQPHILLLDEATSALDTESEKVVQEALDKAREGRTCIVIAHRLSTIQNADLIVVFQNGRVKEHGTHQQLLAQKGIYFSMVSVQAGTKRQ

[7] = test system: P-gp and Bcrp1 at the mouse BBB; details: zosuquidar 25 mg/kg or Ko143 10 mg/kg i.v. 30 min prior to pazopanib 5 mg/kg i.v.; 60 min post dose
P-gp at BBB = details: mouse, in vivo; cited from earlier work
[8] = in vitro MDCKII cell monolayers
[9] = brain, pazopanib 5 mg/kg i.v. + elacridar (GF120918) 10 mg/kg
[10] = brain, pazopanib alone, 5 mg/kg i.v. bolus
[11] = plasma, pazopanib 5 mg/kg i.v. + elacridar (GF120918) 10 mg/kg
[12] = plasma, pazopanib alone, 5 mg/kg i.v. bolus

Chain of P-gp (MDR1) (P08183 whole entry): as above
Chain of P-gp (MDR1), MDCK-MDR1 cell monolayers (P08183 whole entry): as above

Efflux ratio ([1]; MDCK-MDR1, 5 μM pazopanib + 1 μM zosuquidar (LY)): 1.07
Substrate classification for P-gp [1, 8]: moderate substrate
Papp A→B at 240 min, 5 μM (P-gp (MDR1); MDCK-MDR1): 3.73 ± 0.17 ×10⁻⁶ cm/s
Papp B→A at 240 min, 5 μM (P-gp (MDR1); MDCK-MDR1): 6.3 ± 0.56 ×10⁻⁶ cm/s
efflux ratio at 240 min, 5 μM (P-gp (MDR1); MDCK-MDR1, Efflux ratio, MDCK-MDR1, 5 μM pazopanib, no inhibitor): 1.7
AUC (0 → tlast) [2, 9]: 0.042 ± 0.003 mg·min/mL
λz [2, 9]: 0.25 h⁻¹
AUC (0 → tlast) [2, 10]: 0.020 ± 0.001 mg·min/mL
half-life [2, 10]: 1.89 h
AUC (0 → tlast) [2, 11]: 1.029 ± 0.071 mg·min/mL
Volume of distribution [2, 11]: 0.39822 L/kg
clearance [2, 11]: 2.49 mL/min/kg
λz ([2]; plasma, pazopanib 5 mg/kg i.v. + elacridar (GF120918) 10 mg/kg i.v. 30 min prior): 0.38 h⁻¹
AUC (0 → tlast) [2, 12]: 1.356 ± 0.043 mg·min/mL
half-life [2, 12]: 1.39 h
Pazopanib accumulation in Bcrp1 overexpressing cells relative to WT cells [3]: approximately 5 % of WT cells
Papp A→B at 240 min, 5 μM [4]: 2.92 ± 0.33 ×10⁻⁶ cm/s
Papp B→A at 240 min, 5 μM [4]: 3.1 ± 0.22 ×10⁻⁶ cm/s
efflux ratio at 240 min, 5 μM [4]: 1.06
Papp A→B at 240 min, 5 μM (Bcrp1 (murine)): 0.2 ± 0.04 ×10⁻⁶ cm/s
Papp B→A at 240 min, 5 μM (Bcrp1 (murine)): 9.71 ± 0.09 ×10⁻⁶ cm/s
efflux ratio at 240 min, 5 μM (Bcrp1 (murine); with Ko143 200 nM, Efflux ratio, MDCK-Bcrp1, 5 μM pazopanib + 200 nM Ko143): 1.35
Efflux ratio ([5]; MDCK-Bcrp1, 5 μM pazopanib, no inhibitor): 47.1
Substrate classification for Bcrp1 [5, 8]: high affinity substrate
efflux ratio at 240 min, 5 μM (Bcrp1): 47
k el (in vivo; FVB wild type, brain, iv): 0.000103 s⁻¹
Kp (in vivo; FVB wild type, brain/plasma, iv): 0.015
Vd (in vivo; FVB wild type, plasma, iv): 0.286 L/kg
clearance (in vivo; FVB wild type, plasma, iv): 2.38 mL/min/kg
k el (in vivo; FVB wild type, plasma, iv): 0.000139 s⁻¹
concentration at 15 min (in vivo; FVB, brain, intravenous): 293 ± 52 ng/g
concentration at 30 min (in vivo; FVB, brain, intravenous): 157 ± 2 ng/g
concentration at 60 min (in vivo; FVB, brain, intravenous): 95 ± 11 ng/g
half-life (in vivo; FVB, brain, iv): 1.9 h
Kp at 30 min (in vivo; FVB, brain/plasma, intravenous): 0.0113 ± 0.005
Kp at 60 min (in vivo; FVB, brain/plasma, intravenous): 0.009 ± 0.001
half-life (in vivo; FVB, plasma, iv): 1.4 h
Pazopanib accumulation in MDR1 overexpressing cells relative to WT cells [6]: 60 % of WT cells
Compound: Cc1ccc(Nc2nccc(N(C)c3ccc4c(C)n(C)nc4c3)n2)cc1S(N)(=O)=O [Pazopanib]

Compound: O[C@@H](COc1cccc2ncccc12)CN1CCN([C@@H]2c3ccccc3[C@@H]3[C@H](c4ccccc42)C3(F)F)CC1 [zosuquidar]
Effect on pazopanib brain concentration [7]: did not significantly alter
Enhanced brain penetration of paclitaxel upon co-administration (P-gp at BBB): ~ 5.6 fold

Compound: COc1ccc2c3c([nH]c2c1)[C@H](CC(C)C)N1C(=O)[C@H](CCC(=O)OC(C)(C)C)NC(=O)[C@@H]1C3 [Ko143]
Effect on pazopanib brain concentration [7]: did not significantly alter
